According to PubChem BioAssay AID248 (DTP/NCI, 2004):
Values joined by “and” are separate entries in the source; they are usually repeats but may differ in a detail not shown here. Equal values may be shown once. Inconclusive results and toxic doses are left out.

System: L1210 leukemia ip in BDF1 mice, survival T/C
Assay: NCI In Vivo Anticancer Drug Screen. Data for tumor model L1210 Leukemia (intraperitoneal) in B6D2F1 (BDF1) mice
Conditions: endpoint: mean survival time, higher = longer survival
Outline: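 Survival endpoint. Drug-treated group vs vehicle group, expressed as T divided by C. Tumor passaged by transplantation.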

## CCNP(=S)(OCC)OCC
dose: 75.0 mg/kg/injection, schedule: Q01DX001 (ip), vehicle: saline
  T/C: 98 % of control
dose: 150.0 mg/kg/injection, schedule: Q01DX001 (ip), vehicle: saline
  T/C: 89 % of control
dose: 300.0 mg/kg/injection, schedule: Q01DX001 (ip), vehicle: saline
  T/C: 96 % of control

## CN(N)c1nc2c(N)ncnc2n1C1OC(CO)C(O)C1O (stereo unspecified)
dose: 12.5 mg/kg/injection, schedule: Q01DX005 (ip), vehicle: saline
  T/C: 97 % of control
dose: 25.0 mg/kg/injection, schedule: Q01DX005 (ip), vehicle: saline
  T/C: 108 % of control
dose: 50.0 mg/kg/injection, schedule: Q01DX005 (ip), vehicle: saline
  T/C: 100 % of control

## O=NN(CCCl)C(=O)Nc1ccccc1
dose: 2.0 mg/kg/injection, schedule: Q01DX Z (ip), vehicle: carboxymethylcellulose (CMC)
  T/C: 114 % of control
dose: 4.0 mg/kg/injection, schedule: Q01DX Z (ip), vehicle: carboxymethylcellulose (CMC)
  T/C: 169 % of control
dose: 6.0 mg/kg/injection, schedule: Q01DX Z (ip), vehicle: carboxymethylcellulose (CMC)
  T/C: 160 % of control and 213 % of control
dose: 10.0 mg/kg/injection, schedule: Q01DX Z (ip), vehicle: carboxymethylcellulose (CMC)
  T/C: 102 % of control
dose: 14.0 mg/kg/injection, schedule: Q01DX Z (ip), vehicle: carboxymethylcellulose (CMC)
  T/C: 102 % of control
dose: 18.0 mg/kg/injection, schedule: Q01DX001 (ip), vehicle: carboxymethylcellulose (CMC)
  T/C: 123 % of control
dose: 18.0 mg/kg/injection, schedule: Q01DX Z (ip), vehicle: carboxymethylcellulose (CMC)
  T/C: 174 % of control
dose: 20.0 mg/kg/injection, schedule: Q01DX Z (ip), vehicle: carboxymethylcellulose (CMC)
  T/C: 166 % of control
dose: 25.0 mg/kg/injection, schedule: Q01DX Z (ip), vehicle: carboxymethylcellulose (CMC)
  T/C: 107 % of control and 89 % of control
dose: 72.0 mg/kg/injection, schedule: Q01DX001 (ip), vehicle: carboxymethylcellulose (CMC)
  T/C: 114 % of control
